# Reference: patent US7045648B2, “Compound as cholinesterase inhibitor and its isolation from fungus sporotrichum species” (priority 2002, dated 2006)
# Legend:
# [1] = target: T1, rat brain acetylcholinesterase (Rattus norvegicus, UniProt P37136); experiment: Rat brain acetylcholinesterase inhibition (Ellman method); type: biochemical; conditions: rat brain enzyme; 15 min pre-incubation at 25° C.; acetyl thiocholine iodide 0.5 mM; pH 7.4; read-out: IC50 against rat brain AchE
# T1 construct: from tissue; host or cells: rat brain
# T1 sequence (P37136 32-614): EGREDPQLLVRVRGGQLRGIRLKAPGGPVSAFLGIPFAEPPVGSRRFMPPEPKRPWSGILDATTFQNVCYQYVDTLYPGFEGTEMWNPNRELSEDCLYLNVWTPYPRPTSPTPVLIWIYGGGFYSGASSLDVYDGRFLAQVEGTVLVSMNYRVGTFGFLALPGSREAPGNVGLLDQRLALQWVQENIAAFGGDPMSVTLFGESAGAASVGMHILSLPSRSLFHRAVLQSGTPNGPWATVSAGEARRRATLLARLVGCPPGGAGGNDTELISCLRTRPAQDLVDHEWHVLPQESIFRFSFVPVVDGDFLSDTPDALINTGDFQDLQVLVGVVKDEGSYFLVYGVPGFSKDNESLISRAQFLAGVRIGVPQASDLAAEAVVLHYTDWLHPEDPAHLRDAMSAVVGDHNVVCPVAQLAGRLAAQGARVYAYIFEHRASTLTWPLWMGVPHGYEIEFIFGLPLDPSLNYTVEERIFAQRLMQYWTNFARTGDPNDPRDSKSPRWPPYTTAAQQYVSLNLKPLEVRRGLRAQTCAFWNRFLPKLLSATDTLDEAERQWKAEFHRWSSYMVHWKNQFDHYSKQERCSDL
# Protocol: Absorbance change at 412 nm is monitored every 30 seconds for 2 min in an UV-VIS Spectrophotometer. Inhibition is calculated relative to the solvent control. IC50 is determined by regression analysis.
# [2] = target: T2, acetylcholinesterase from erythrocytes (Homo sapiens, UniProt P22303); experiment: Erythrocyte acetylcholinesterase inhibition; type: biochemical, rat; conditions: erythrocyte enzyme; read-out: IC50 against acetylcholinesterase from erythrocytes
# T2 construct: from tissue; host or cells: erythrocytes
# [3] = test system: serine esterase of the rat liver serum; experiment: Serine esterase inhibition; type: biochemical
# [4] = test system: mosquito larvae culex quinquifasciatus; experiment: Insecticidal activity against mosquito larvae; type: in vivo; conditions: in water (70 ppm); exposed for 24 hrs
# Protocol: Yet another embodiment of the present invention, wherein said compound effective against mosquito larvae at an optimum concentration of 70 μg/ml water (70 ppm) when exposed for 24 hrs.
# Still another embodiment of the present invention, wherein the insecticidal activity of the compound against mosquito larvae is selected from culex quinquifasciatus.
# [5] = Solubility in organic solvents; type: physicochemical; conditions: in ethyl acetate, methanol and acetone
# T2 sequence (P22303 32-617 isoform P22303-2 limits assumed): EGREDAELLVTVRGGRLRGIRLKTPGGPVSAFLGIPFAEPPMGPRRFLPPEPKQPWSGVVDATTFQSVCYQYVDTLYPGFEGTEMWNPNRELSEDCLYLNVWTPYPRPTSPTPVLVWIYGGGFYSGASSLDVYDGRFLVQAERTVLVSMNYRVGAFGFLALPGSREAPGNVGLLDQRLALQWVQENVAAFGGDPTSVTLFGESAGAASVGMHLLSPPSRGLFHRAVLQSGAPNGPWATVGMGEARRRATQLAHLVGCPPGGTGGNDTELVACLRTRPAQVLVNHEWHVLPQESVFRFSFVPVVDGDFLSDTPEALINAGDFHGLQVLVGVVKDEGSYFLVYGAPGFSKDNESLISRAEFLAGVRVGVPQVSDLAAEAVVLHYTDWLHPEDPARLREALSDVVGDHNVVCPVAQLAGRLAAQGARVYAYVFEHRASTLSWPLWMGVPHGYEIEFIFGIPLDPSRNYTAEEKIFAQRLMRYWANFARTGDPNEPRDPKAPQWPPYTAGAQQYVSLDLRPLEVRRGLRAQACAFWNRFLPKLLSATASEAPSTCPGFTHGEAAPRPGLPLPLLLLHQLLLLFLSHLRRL
smiles,measurement,setting,value
"COc1ccc(C(=O)O)c(C(O)CCCCCCCC(=O)CC(C)O)c1 (centres unmarked) [Sporotricolone, 12-(2′-CARBOXY-5′-METHOXYPHENYL)-2,12-DIHYDROXY-DODECA-4-ONE]",IC50,[1],20 µM
same,IC50,[2],20 µM
same,inhibition of serine esterase of the rat liver serum,[3],inhibitor
same,optimum concentration effective against mosquito larvae,[4],70 µg/mL
same,Solubility,[5],Highly soluble
